Holding throughout (assay type): physicochemical
A short description of data set [1]: Equilibrium solubility in SGF (pH 2.0), 0.1 N HCl (pH 1.2) and phosphate buffer (pH 8.0). To be noted: solid from solubility study with Form A in 0.1 N HCl solution. The protocol: (§1) Solid part and liquid part were separated by filtration. Solubility was measured by HPLC. Solid part (wet cake) was investigated by XRPD.
Data set [2] can be described thus: Variable humidity and temperature XRPD experiments. Here is the method: Based on DVS and DSC results of Form C, Form C starts to loss water when humidity is below 30% or when temperature is higher than about 44° C. […] In order to determine identity of potential form changes after the dehydration and upon the solid-solid transition, variable humidity and variable temperature XRPD techniques were applied. XRPD patterns of the sample were measured online under 25° C./ambient environment (initial)-120° C./N2 protection-25° C./ambient environment-25° C./80% RH (40 min)-25° C./0% RH (15 h), and 25° C./ambient environment (initial)-250° C./N2 protection-25° C./ambient environment. […] Form L coverts back to Form C after exposure to 25° C./80% RH for 40 min.
Based on DVS and DSC results of Form D, Form D starts to loss water when humidity is below 10% or when temperature is higher than 46° C. In order to determine identity of the dehydration product, variable humidity and variable temperature XRPD techniques were applied. XRPD patterns of the sample were measured online with a temperature cycle of 25° C./ambient environment (initial)-130° C./N2 protection (10 min)-25° C./N2 protection-25° C./ambient environment (3h) and two water sorption and desorption cycles of 50% RH (initial)-90% RH (3h)-60% RH (2h)-40% RH (2h)-20% RH (3h)-10% RH (3h)-0% RH (6h)-10% RH (3h)-20% RH (3h)-50% RH at 25° C. […] (higher than dehydration temperature). Form S converts back to Form D after exposure to ambient condition for 3 h.
In order to investigate potential form change of Form A upon heating, variable temperature XRPD technique was applied. XRPD patterns of the sample were measured online with a temperature cycle of 25° C. (initial)-50° C./N2 protection-70° C./N2 protection-250° C./N2 protection-25° C./N2 protection-25° C./ambient condition (3h). […] Form A converts to Form U when temperature is 250° C., and Form U converts to Form T after cooling to 25° C.

The nature of data set [3]: Hygroscopicity: water sorption and desorption by dynamic vapor sorption (DVS). Particulars: for humidity at which water is absorbed again / water content restored (conversion back to the hydrate): DVS and variable humidity XRPD. Here is the method:
In some embodiments, the crystalline form described herein is further characterized by is further characterized by a dynamic vapor sorption (DVS) profile. In some embodiments, a DVS is recorded according to the method as described herein with a cycle of 40-0-95-0-40% RH at 25° C.
Water sorption and desorption behaviors of Form A, Form C, Form D, and Form T were investigated by DVS at 25° C. with a cycle of 40-0-95-0-40% RH. Dm/dt was 0.002. Minimum equilibration time was 60 min. Maximum equilibration time was 360 min. XRPD was measured after DVS test to determine potential form change.

A short description of data set [4]: Variable humidity and temperature XRPD experiments. This is another data set of the same source.
Data set [5] is described as follows: Equilibrium solubility in FeSSIF and FaSSIF. Particulars: for XRPD of solid after solubility test / final pH / Solubility / impurity in solubility sample: 24 hours; for Solubility / solubility at 24 h: target concentration 1 mg/mL, HPLC method 1 or 2 (footnote); for impurity in solubility sample: no unit printed for impurity (column head mg/mL); for solubility at 24 h: 37 °C, thermodynamic from solid. Here is the method: as §1

The record followed here is patent publication US20260193254A1, “2-OXOQUINAZOLINE CRYSTALLINE FORMS” (IDEAYA Biosciences, Inc., priority 2022, published 2026).

Each structure is given as a SMILES string. Converted amounts (≈) assume the structure as drawn.

Consider `Nc1nc(=O)n(-c2ccccc2Cl)c2nc(C(F)(F)F)ccc12` [Form R, 4-Amino-1-(2-chlorophenyl)-7-(trifluoromethyl)pyrido[2,3-d]pyrimidin-2(1H)-one], for which the “impurity from HPLC result” value in data set [1] is “about 68.5%”.
On to `Nc1nc(=O)n(-c2ccccc2Cl)c2nc(C(F)(F)F)ccc12` [Form U, 4-Amino-1-(2-chlorophenyl)-7-(trifluoromethyl)pyrido[2,3-d]pyrimidin-2(1H)-one], for which the “form after cooling to 25° C.” value in data set [2] (after heating to 250° C.) is “Form T”.
With `Nc1nc(=O)n(-c2ccccc2Cl)c2nc(C(F)(F)F)ccc12` [Form C, 4-Amino-1-(2-chlorophenyl)-7-(trifluoromethyl)pyrido[2,3-d]pyrimidin-2(1H)-one], the “XRPD (XRPD method 2)” value in data set [2] (VT2 120° C./60% RH (10 min)) is “Form L”; in data set [2] (VT4 25° C./80% RH (40 min)), “Form C”; in data set [2] (VT6 25° C./60% RH (initial)), “Form C”; in data set [4] (VT1 25° C./60% RH (initial)), “Form C”; in data set [4] (VT7 250° C./60% RH (10 min)), “Solid state Form V”; in data set [4] (VT8 25° C./60% RH (final)), “Solid state Form V”. Also, the “temperature above which the form starts to lose water” value in data set [2] (based on DSC results) is “higher than 44 °C”. Also, the “dehydration product (form obtained on loss of water)” value in data set [2] (low humidity or heating above the dehydration temperature) is on record as “Form L”. In addition, in data set [3] (25° C.), the “humidity below which the form starts to lose water” value is given as “below 30 % RH”. Also, in data set [3] (XRPD after DVS), the “form change after the DVS test” value was “A mixture of Form L and Form C was obtained”. Further, the “XRPD of solid after solubility test” value in data set [5] (FaSSIF, pH 6.5, 37° C.) is “Form C”; in data set [5] (FeSSIF, pH 5.0, 37° C.), “Form C”. Also, the “final pH” value in data set [5] (FaSSIF, pH 6.5, 37° C.) is listed as 6.6; in data set [5] (FeSSIF, pH 5.0, 37° C.), 5.2. Moreover, the Solubility was determined as 60 µg/mL (≈ 176 µM) in data set [5] (FaSSIF, pH 6.5, 37° C.) and 170 µg/mL (≈ 499 µM) in data set [5] (FeSSIF, pH 5.0, 37° C.). The “impurity in solubility sample” value was “no impurity” in data set [5] (FaSSIF, pH 6.5, 37° C.) and “no impurity” in data set [5] (FeSSIF, pH 5.0, 37° C.).
`Nc1nc(=O)n(-c2ccccc2Cl)c2nc(C(F)(F)F)ccc12` [Form L, 4-Amino-1-(2-chlorophenyl)-7-(trifluoromethyl)pyrido[2,3-d]pyrimidin-2(1H)-one]: the “form after exposure to 25° C./80% RH for 40 min” value in data set [2] (variable humidity XRPD) was “Form C”. Besides, in data set [2] (variable temperature XRPD, N2 protection), the “form obtained on heating to 250° C.” value was “solid state Form V”. Further, in data set [3] (25° C.), the “humidity at which water is absorbed again / water content restored (conversion back to the hydrate)” value is listed as no less than 80 % RH.
`Nc1nc(=O)n(-c2ccccc2Cl)c2nc(C(F)(F)F)ccc12` [Form S, 4-Amino-1-(2-chlorophenyl)-7-(trifluoromethyl)pyrido[2,3-d]pyrimidin-2(1H)-one]: in data set [2] (XRPD, 25° C.), the “form after exposure to ambient condition for 3 h” value is on record as “Form D”. Further, the “humidity at which water is absorbed again / water content restored (conversion back to the hydrate)” value in data set [3] (25° C.) is “higher than 20 % RH”.
Consider `Nc1nc(=O)n(-c2ccccc2Cl)c2nc(C(F)(F)F)ccc12` [Form E, 4-Amino-1-(2-chlorophenyl)-7-(trifluoromethyl)pyrido[2,3-d]pyrimidin-2(1H)-one], for which the solubility at 24 h in data set [5] (pH 5, fessif, FeSSIF, pH 5.0, 37° C.) came out at 140 µg/mL (≈ 411 µM); in data set [5] (pH 6.5, fassif, FaSSIF, pH 6.5, 37° C.), 60 µg/mL (≈ 176 µM). Also, the “XRPD of solid after solubility test” value in data set [5] (FaSSIF, pH 6.5, 37° C.) is listed as “Form E”; in data set [5] (FeSSIF, pH 5.0, 37° C.) it was “Form E”. Besides, the “final pH” value is 6.6 in data set [5] (FaSSIF, pH 6.5, 37° C.) and 5.2 in data set [5] (FeSSIF, pH 5.0, 37° C.).
Regarding `Nc1nc(=O)n(-c2ccccc2Cl)c2nc(C(F)(F)F)ccc12` [Form F, 4-Amino-1-(2-chlorophenyl)-7-(trifluoromethyl)pyrido[2,3-d]pyrimidin-2(1H)-one], in data set [5] (FaSSIF, pH 6.5, 37° C.), the “XRPD of solid after solubility test” value is listed as “Form F” and the “final pH” value is listed as 6.6. Moreover, in data set [5] (FeSSIF, pH 5.0, 37° C.), the “XRPD of solid after solubility test” value is on record as “Form F”, the “final pH” value is 5.0 and the Solubility stood at 240 µg/mL (≈ 704 µM).

For orientation: Solubility means the dissolved amount per volume that the medium holds. A higher Solubility goes with a readily soluble substance. Usually solubility stands for how much of the substance goes into solution per volume. A higher solubility goes with a readily soluble substance.
